Converted amounts (≈) assume the structure as drawn.
Assays:
[1] = Inhibition of NF-kappaB by ELISA assay; set-up: species or system Homo sapiens
Lu1 = experiment: Cytotoxicity against Lu1 cells; format: functional; conditions: Homo sapiens, read-out: ED50 (the source's name)
MCF7 = experiment: Cytotoxicity against MCF7 cells; format: functional; conditions: Homo sapiens, read-out: ED50 (the source's name)
LNCaP = experiment: Cytotoxicity against LNCaP cells; format: functional; conditions: Homo sapiens, read-out: ED50 (the source's name)

Compound | IC50 [1] | also measured
COc1ccc(C2OC(=O)c3c(OC)cc(OC)cc32)cc1 (centres undefined) | 1.9 µM | –
C/C=C1/C(=O)C[C@H]2[C@@H]3CC=C4[C@@H](O)[C@@H](O)CC[C@]4(C)[C@H]3CC[C@]12C | – | EC50 (Lu1): 4.6 µg/mL (≈ 13.9 µM); EC50 (MCF7): 4.2 µg/mL (≈ 12.7 µM); EC50 (LNCaP): 4.7 µg/mL (≈ 14.2 µM)
COc1ccc([C@]23Oc4cc(OC)cc(OC)c4[C@](O)([C@H](C(=O)N4CCC[C@@H]4OC)[C@H]2c2ccccc2)[C@@H]3O)cc1 (relative stereo) [PONAPENSIN] | 0.06 µM | –
CCC(C)C(=O)N[C@@H]1CCCN1C(=O)[C@@H]1[C@@H](c2ccccc2)[C@]2(c3ccc(OC)cc3)Oc3cc(OC)cc(OC)c3[C@@]1(O)[C@@H]2OC(C)=O (some centres undefined) [4-EPIAGLAIN A] | > 5 µM | –
COC(=O)[C@H]1[C@@H](O)[C@@]2(O)c3c(OC)cc(OC)cc3O[C@@]2(c2ccc(OC)cc2)[C@@H]1c1ccccc1 [AGLAFOLIN] | 2.3 µM | –
CCC(C)C(=O)N[C@@H]1CCCN1C(=O)[C@H]1[C@H](c2ccccc2)[C@]2(c3ccc(OC)cc3)Oc3cc(OC)cc(OC)c3[C@@]1(O)[C@@H]2O (some centres undefined) [AGLAIN B] | > 5 µM | –
COc1ccc([C@@]23Oc4cc(OC)cc(OC)c4[C@]2(O)[C@H](O)[C@H](C(=O)N(C)C)[C@H]3c2ccccc2)cc1 [ROCAGLAMIDE] | 2 µM | –

Reference: ChEMBL document CHEMBL1146268, “Ponapensin, a cyclopenta[bc]benzopyran with potent NF-kappaB inhibitory activity from Aglaia ponapensis” (Bioorg Med Chem Lett, 2007)
